The source of these data is patent US20050260715A1, “Efficient methods for producing antimicrobial cationic peptides in host cells” (priority 1998, published 2005).

One assay concerns S. maltophilia SMA2. The procedure: (§1) In the present case, the antimicrobial activities of MBI-11B7CN, MBI-11B7HSL (homoserine lactone form) and MBI-11B7HS (homoserine form) were tested against various gram-negative and gram-positive strains, including antibiotic resistant strains. The assay was performed as described in “Methods for Dilution Antimicrobial Susceptibility Tests for Bacteria That Grow Aerobically-Fourth Edition; Approved Standard” NCCLS document M7-A4 (ISBN 1-56238-309-4) Vol. 17, No. 2 (1977).
(§2) The antimicrobial activities of the chemically synthesized MBI-11B7CN peptide and recombinant DNA synthesized MBI-11B7HSL (homoserine lactone form) and MBI-11B7HS (homoserine form) peptides were tested against various gram-negative and positive strains of bacteria, including antibiotic resistant strains. The Agarose Dilution Assay was performed as described in “Methods for Dilution Antimicrobial Susceptibility Tests for Bacteria That Grow Aerobically-Fourth Edition; Approved Standard” NCCLS document M7-A4 (ISBN 1-56238-309-4) Vol. 17, No 2 (1977).
(§3) The agarose dilution assay measures antimicrobial activity of peptides and peptide analogues, which is expressed as the minimum inhibitory concentration (MIC) of the peptides.
(§4) In order to mimic in vivo conditions, calcium and magnesium supplemented Mueller Hinton broth is used in combination with a low EEO agarose as the bacterial growth medium. Agarose, rather than agar, is used as the charged groups in agar prevent peptide diffusion through the media. The medium is autoclaved and then cooled to 50° C.-55° C. in a water bath before aseptic addition of anti-microbial solutions. The same volume of different concentrations of peptide solution are added to the cooled molten agarose, which is then poured to a depth of 3-4 mm.
(§5) The bacterial inoculum is adjusted to a 0.5 McFarland turbidity standard (PML Microbiological) and then diluted 1:10 before application on to the agarose plate. The final inoculum applied to the agarose is approximately 10^4 CFU in a 5-8 mm diameter spot. The agarose plates are incubated at 35° C.-37° C. for 16 to 20 hours.

Another assay has as its system S. marcescens SMS3. The procedure: as §1, §2, §3, §4, §5
The next assay has as its system K. pneumoniae KP1. The method, then:
as §1, §2, §3, §4, §5

Another assay has as its system S. epidermidis SE10. The method, then:
as §1, §2, §3, §4, §5

The subject of the next assay is S. aureus SA93. The procedure: as §1, §2, §3, §4, §5
The next assay concerns E. cloacae ECL7. The procedure: as §1, §2, §3, §4, §5
The test system of the next assay is S. aureus SA14. The procedure:
as §1, §2, §3, §4, §5

The next assay relates to E. faecalis EFS1. The procedure:
as §1, §2, §3, §4, §5

Another assay has as its system E. faecalis EFS8. The procedure:
as §1, §2, §3, §4, §5

In another assay the test system is P. aeruginosa PA4. The procedure:
as §1, §2, §3, §4, §5

The next assay has as its system E. coli ECO5. The procedure: as §1, §2, §3, §4, §5
The subject of the next assay is A. calcoaceticus AC2. The procedure: as §1, §2, §3, §4, §5
Where [1] appears, read: S. maltophilia, organism # SMA2, source ATCC, agarose dilution.
Where [2] appears, read: S. marcescens, organism # SMS3, source ATCC, agarose dilution.
Setting [3] is: K. pneumoniae, organism # KP1, source ATCC, agarose dilution.
Where [4] appears, read: S. epidermidis, organism # SE10, source Chow, agarose dilution.
[5] abbreviates: S. aureus, organism # SA93, source Bayer, agarose dilution.
[6] abbreviates: E. cloacae, organism # ECL7, source ATCC, agarose dilution.
[7] abbreviates: S. aureus, organism # SA14, source Bayer, agarose dilution.
[8] abbreviates: E. faecalis, organism # EFS1, source ATCC, agarose dilution.
The mark [9] stands for this setting: E. faecalis, organism # EFS8, source ATCC, agarose dilution.
The mark [10] stands for this setting: P. aeruginosa, organism # PA4, source ATCC, agarose dilution.
The mark [11] stands for this setting: E. coli, organism # ECO5, source ATCC, agarose dilution.
[12] abbreviates: A. calcoaceticus, organism # AC2, source ATCC, agarose dilution.

Where two headings read alike, the source gives them in different places. Square brackets hold non-standard residues; d marks the D form. Ends that are not written are not given here. Peptide text beside a SMILES is read from it. * marks the point of attachment. hSer(lactone) = O=C1OCC[C@@H]1N*; hSer = N[C@@H](CCO)C(=O)O

The MIC is the least concentration at which growth counts as inhibited. Consider `CC[C@H](C)[C@H](N)C(=O)N[C@@H](CC(C)C)C(=O)N[C@@H](CCCNC(=N)N)C(=O)N[C@@H](Cc1c[nH]c2ccccc12)C(=O)N1CCC[C@H]1C(=O)N[C@@H](Cc1c[nH]c2ccccc12)C(=O)N[C@@H](Cc1c[nH]c2ccccc12)C(=O)N1CCC[C@H]1C(=O)N[C@@H](Cc1c[nH]c2ccccc12)C(=O)N[C@@H](CCCNC(=N)N)C(=O)N[C@@H](CCCNC(=N)N)C(=O)N[C@@H](CCCCN)C(=O)N[C@H]1CCOC1=O` [11B7HSL] (H-ILRWPWWPWRRK-{hSer(lactone)}; N-terminus assumed), for which the MIC is 32 µg/mL with S. maltophilia SMA2 (setting [1]); above 64 µg/mL in the assay with S. marcescens SMS3 (setting [2]); 8 µg/mL with K. pneumoniae KP1 (setting [3]); 4 µg/mL with S. epidermidis SE10 (setting [4]); 1 µg/mL in the assay on S. aureus SA93 (setting [5]); above 64 µg/mL in the assay on E. cloacae ECL7 (setting [6]). For the same molecule, the MIC in the assay on S. aureus SA14 (setting [7]) is 1 µg/mL; with E. faecalis EFS1 (setting [8]) it was 1 µg/mL; in the assay with E. faecalis EFS8 (setting [9]) it was 16 µg/mL; in the assay with P. aeruginosa PA4 (setting [10]) it was above 64 µg/mL; in the assay with E. coli ECO5 (setting [11]), 8 µg/mL; in the assay on A. calcoaceticus AC2 (setting [12]), 4 µg/mL.
As for `CC[C@H](C)[C@H](N)C(=O)N[C@@H](CC(C)C)C(=O)N[C@@H](CCCNC(=N)N)C(=O)N[C@@H](Cc1c[nH]c2ccccc12)C(=O)N1CCC[C@H]1C(=O)N[C@@H](Cc1c[nH]c2ccccc12)C(=O)N[C@@H](Cc1c[nH]c2ccccc12)C(=O)N1CCC[C@H]1C(=O)N[C@@H](Cc1c[nH]c2ccccc12)C(=O)N[C@@H](CCCNC(=N)N)C(=O)N[C@@H](CCCNC(=N)N)C(=O)N[C@@H](CCCCN)C(=O)N[C@@H](CCO)C(=O)O` [11B7HS] (H-ILRWPWWPWRRK[hSer]-OH; N-terminus assumed), the MIC in the assay with S. maltophilia SMA2 (SMA2) is 64 µg/mL; in the assay on S. marcescens SMS3 (SMS3), above 64 µg/mL; with K. pneumoniae KP1 (KP1) it was 32 µg/mL; in the assay on S. epidermidis SE10 (SE10) it was 8 µg/mL; in the assay on S. aureus SA93 (SA93) it was 1 µg/mL; in the assay with E. cloacae ECL7 (ECL7), above 64 µg/mL. For the same molecule, the MIC was 2 µg/mL in the assay with S. aureus SA14 (SA14); 2 µg/mL in the assay with E. faecalis EFS1 (EFS1); 32 µg/mL in the assay on E. faecalis EFS8 (EFS8); above 64 µg/mL in the assay with P. aeruginosa PA4 (PA4); 32 µg/mL with E. coli ECO5 (ECO5); 2 µg/mL in the assay on A. calcoaceticus AC2.
As to ILRWPWWPWRRK-NH2 [11B7CN], the MIC in the assay on S. maltophilia SMA2 (setting [1]) is 32 µg/mL; with S. marcescens SMS3 (setting [2]), above 64 µg/mL; in the assay on K. pneumoniae KP1 (setting [3]) it was 8 µg/mL; in the assay with S. epidermidis SE10 (setting [4]), 2 µg/mL; in the assay on S. aureus SA93 (setting [5]), 1 µg/mL; with E. cloacae ECL7 (setting [6]), above 64 µg/mL. Also, the minimal inhibitory concentration (MIC) in the assay on S. aureus SA14 (setting [7]) is 4 µg/mL; with E. faecalis EFS1 (setting [8]) it was 2 µg/mL; in the assay with E. faecalis EFS8 (setting [9]) it was 16 µg/mL; with P. aeruginosa PA4 (setting [10]) it was above 64 µg/mL; in the assay on E. coli ECO5 (setting [11]), 8 µg/mL; in the assay with A. calcoaceticus AC2 (setting [12]), 2 µg/mL.
